From US9617244B2, “Antibacterial quinoline derivatives” (JANSSEN PHARMACEUTICA NV, priority 2012, dated 2017)
Converted amounts (≈) assume the structure as drawn.

Tests used:
[1] = tested on: Staphylococcus aureus (ATCC29213); assay: In-vitro anti-bacterial activity, microtitre plate assay, IC90 determination (non-mycobacterial strains); format: cell-based; conditions: 90% inhibitory concentration for bacterial growth, resazurin fluorescence; for IC90 STA B29213: 24 hours; for IC90: Staphylococcus aureus, ATCC29213, 24 h, read-out: IC90 STA B29213
Description: D.2. In-Vitro Method for Testing Compounds for Anti-Bacterial Activity Against Various Non-Mycobacterial Strains
Preparation of Bacterial Suspensions for Susceptibility Testing:
The bacteria used in this study were grown overnight in flasks containing 100 ml Mueller-Hinton Broth (Becton Dickinson—cat. no. 275730) in sterile de-ionized water, with shaking, at 37° C. Stocks (0.5 ml/tube) were stored at −70° C. until use. Bacteria titrations were performed in microtiter plates to detect the TCID50, in which TCID50 represents the dilution that gives rise to bacterial growth in 50% of inoculated cultures. In general, an inoculum level of approximately 100 TCID50 was used for susceptibility testing.
Anti Bacterial Susceptibility Testing: IC90 Determination
Flat-bottom, sterile 96-well plastic microtiter plates were filled with 180 μl of sterile deionized water, supplemented with 0.25% BSA. Subsequently, stock solutions (7.8× final test concentration) of compounds were added in 45 μl volumes in column 2 Serial five-fold dilutions (45 μl in 180 μl) were made directly in the microtiter plates from column 2 to reach column 11. Untreated control samples with (column 1) and without (column 12) inoculum were included in each microtiter plate. Depending on the bacteria type, approximately 10 to 60 CFU per well of bacteria inoculum (100 TCID50), in a volume of 100 μl in 2.8× Mueller-Hinton broth medium, was added to the rows A to H, except column 12. The same volume of broth medium without inoculum was added to column 12 in row A to H. The cultures were incubated at 37° C. for 24 hours under a normal atmosphere (incubator with open air valve and continuous ventilation). At the end of incubation, one day after inoculation, the bacterial growth was quantitated fluorometrically. Therefore resazurin (0.6 mg/ml) was added in a volume of 20 μl to all wells 3 hours after inoculation, and the plates were re-incubated overnight. A change in colour from blue to pink indicated the growth of bacteria. The fluorescence was read in a computer-controlled fluorometer (Cytofluor Biosearch) at an excitation wavelength of 530 nm and an emission wavelength of 590 nm. The % growth inhibition achieved by the compounds was calculated according to standard methods. The IC90 (expressed in μg/ml) was defined as the 90% inhibitory concentration for bacterial growth.

[2] = tested on: Mycobacterium smegmatis (ATCC607); assay: In-vitro anti-bacterial activity against strain M. Smegmatis ATCC607; format: cell-based; conditions: 90% inhibitory concentration for bacterial growth, Alamar Blue fluorescence; for IC90 MSM 607: 48 hours; for IC90: Mycolicibacterium smegmatis, ATCC607, 48 h, read-out: IC90 MSM 607
Description: D.1. In-Vitro Method for Testing Compounds for Anti-Bacterial Activity Against Strain M. Smegmatis ATCC607
Flat-bottom, sterile 96-well plastic microtiter plates were filled with 180 μl of sterile deionized water, supplemented with 0.25% BSA. Subsequently, stock solutions (7.8× final test concentration) of compounds were added in 45 μl volumes to a series of duplicate wells in column 2 so as to allow evaluation of their effects on bacterial growth. Serial five-fold dilutions (45 μl in 180 μl) were made directly in the microtiter plates from column 2 to 11 using a customised robot system (Zymark Corp., Hopkinton, Mass.). Pipette tips were changed after every 3 dilutions to minimize pipetting errors with high hydrophobic compounds. Untreated control samples with (column 1) and without (column 12) inoculum were included in each microtiter plate. Approximately 250 CFU per well of bacteria inoculum, in a volume of 100 μl in 2.8× Mueller-Hinton broth medium, was added to the rows A to H, except column 12. The same volume of broth medium without inoculum was added to column 12 in row A to H. The cultures were incubated at 37° C. for 48 hours in a humidified 5% CO2 atmosphere (incubator with open air valve and continuous ventilation). At the end of incubation, two days after inoculation, the bacterial growth was quantitated fluorometrically. Therefore Alamar Blue (10×) was added to all wells in a volume of 20 μl and plates were incubated for another 2 hours at […]
The fluorescence was read in a computer-controlled fluorometer (Cytofluor, Biosearch) at an excitation wavelength of 530 nm and an emission wavelength of 590 nm (gain 30). The percentage growth inhibition achieved by the compounds was calculated according to standard methods and expressed as IC90 (μg/ml) which defines the 90% inhibitory concentration for bacterial growth.

| IC90 STA B29213 [1] [µg/mL] | IC90 MSM 607 [2] [µg/mL] | IC90 [2] [µg/mL] | IC90 [1] [µg/mL] | Compound |
| --- | --- | --- | --- | --- |
| 1.84 (≈ 3.31 µM) | 1.84 (≈ 3.31 µM) |  |  | Cc1cc(F)ccc1C1CC(O)(C(c2cccc(Cl)c2)c2cc3cc(Br)ccc3[nH]c2=O)CCN1 (centres unmarked) [Compound 135] |
| 2.08 (≈ 3.74 µM) | 1.47 (≈ 2.64 µM) |  |  | Cc1cc(F)ccc1C1CC(O)(C(c2cccc(Cl)c2)c2cc3cc(Br)ccc3[nH]c2=O)CCN1 (centres unmarked) [Compound 136] |
| 3.69 (≈ 6.64 µM) | 1.65 (≈ 2.97 µM) |  |  | Cc1cc(F)ccc1C1CC(O)(C(c2cccc(Cl)c2)c2cc3cc(Br)ccc3[nH]c2=O)CCN1 (centres unmarked) [Compound 137] |
| 2.35 (≈ 4.23 µM) | 1.18 (≈ 2.12 µM) |  |  | Cc1cc(F)ccc1C1CC(O)(C(c2cccc(Cl)c2)c2cc3cc(Br)ccc3[nH]c2=O)CCN1 (centres unmarked) [Compound 138] |
|  | 1.78 (≈ 3.5 µM) |  | 2 (≈ 3.93 µM) | COc1nc2ccccc2cc1C(c1ccc(Cl)cc1)C1(O)CCNC(Cc2ccc(F)c(F)c2)C1 (centres unmarked) [Compound 139] |
| 2.55 (≈ 5.01 µM) | 0.72 (≈ 1.41 µM) |  |  | COc1nc2ccccc2cc1C(c1ccc(Cl)cc1)C1(O)CCNC(Cc2ccc(F)c(F)c2)C1 (centres unmarked) [Compound 140] |
| 7.77 (≈ 16 µM) | 4.37 (≈ 9.02 µM) |  |  | COc1nc2ccc(SC)cc2cc1C(c1ccccc1)C1(O)CCNC(Cc2ccccc2)C1 (centres unmarked) [Compound 141] |
| 1.82 (≈ 3.27 µM) | 2.04 (≈ 3.67 µM) |  |  | Cc1cc(F)ccc1C1CC(O)(C(c2cccc(Cl)c2)c2cc3cc(Br)ccc3[nH]c2=O)CCN1 (centres unmarked) [Compound 143] |
| 3.63 (≈ 6.53 µM) | 3.24 (≈ 5.83 µM) |  |  | Cc1cc(F)ccc1C1CC(O)(C(c2cccc(Cl)c2)c2cc3cc(Br)ccc3[nH]c2=O)CCN1 (centres unmarked) [Compound 144] |
| 2.92 (≈ 5.25 µM) | 2.32 (≈ 4.17 µM) |  |  | Cc1cc(F)ccc1C1CC(O)(C(c2cccc(Cl)c2)c2cc3cc(Br)ccc3[nH]c2=O)CCN1 (centres unmarked) [Compound 145] |
| 2.35 (≈ 4.23 µM) | 1.87 (≈ 3.36 µM) |  |  | Cc1cc(F)ccc1C1CC(O)(C(c2cccc(Cl)c2)c2cc3cc(Br)ccc3[nH]c2=O)CCN1 (centres unmarked) [Compound 146] |

Second part, the compound before the results:

| Compound | IC90 STA B29213 [1] [µg/mL] | IC90 MSM 607 [2] [µg/mL] | IC90 [2] [µg/mL] | IC90 [1] [µg/mL] |
| --- | --- | --- | --- | --- |
| CS(=O)(=O)c1ccc2[nH]c(=O)c(C(c3ccc(Cl)cc3)C3(O)CCNC(Cc4ccc(F)cc4)C3)cc2c1 (centres unmarked) [Compound 57] | 3.50 (≈ 6.31 µM) | 3.50 (≈ 6.31 µM) |  |  |
| CS(=O)(=O)c1ccc2[nH]c(=O)c(C(c3ccc(Cl)cc3)C3(O)CCNC(Cc4ccc(F)cc4)C3)cc2c1 (centres unmarked) [Compound 58] | >13.94 | >13.94 |  |  |
| CS(=O)(=O)c1ccc2[nH]c(=O)c(C(c3ccc(Cl)cc3)C3(O)CCNC(Cc4ccc(F)cc4)C3)cc2c1 (centres unmarked) [Compound 59] | 6.99 (≈ 12.6 µM) | 5.55 (≈ 10 µM) |  |  |
| CCCN(C)CC1CC(O)(C(c2ccc(Cl)cc2)c2cc3cc(Cl)ccc3nc2OC)CCN1 (centres unmarked) [Compound 64] | 7.93 (≈ 15.8 µM) | 3.98 (≈ 7.92 µM) |  |  |
| COc1nc2ccc(Br)cc2cc1C(c1ccc(Cl)cc1)C1(O)CCNC(Cc2ccccc2)C1 (centres unmarked) [Compound 77] | 5.49 (≈ 9.95 µM) | 4.36 (≈ 7.9 µM) |  |  |
| O=c1[nH]c2ccc(Br)cc2cc1C(c1cccc(Cl)c1)C1(O)CCNC(Cc2ccccc2)C1 (centres unmarked) [Compound 85] | 7.23 (≈ 13.4 µM) |  | 3.62 (≈ 6.73 µM) |  |
| CSc1nc2ccc(Br)cc2cc1C(c1ccc(Cl)cc1)C1(O)CCNC(Cc2ccccc2)C1 (centres unmarked) [Compound 89] |  |  | 1.8 (≈ 3.17 µM) | 3.58 (≈ 6.3 µM) |
| COc1nc2ccc(Cl)cc2cc1C(c1ccc(Cl)cc1)C1(O)CCNC(Cc2ccccc2)C1 (centres unmarked) [Compound 95] | 2.02 (≈ 3.98 µM) | 1.43 (≈ 2.82 µM) |  |  |
| Cc1cc(F)ccc1C1CC(O)(C(c2ccc(Cl)cc2)c2cc3cc(Br)ccc3[nH]c2=O)CCN1 (centres unmarked) [Compound 106] | 1.87 (≈ 3.36 µM) | <0.93 |  |  |
| Cc1cc(F)ccc1C1CC(O)(C(c2ccc(Cl)cc2)c2cc3cc(Br)ccc3[nH]c2=O)CCN1 (centres unmarked) [Compound 107] |  | 2.65 (≈ 4.77 µM) |  | 1.87 (≈ 3.36 µM) |
| Cc1cc(F)ccc1C1CC(O)(C(c2ccc(Cl)cc2)c2cc3cc(Br)ccc3[nH]c2=O)CCN1 (centres unmarked) [Compound 110] | 1.87 (≈ 3.36 µM) | 1.87 (≈ 3.36 µM) |  |  |
| COc1nc2ccc(C(=O)O)cc2cc1C(c1ccc(Cl)cc1)C1(O)CCNC(Cc2ccccc2)C1 (centres unmarked) [Compound 118] |  |  | > 20.6 | > 20.6 |
| CS(=O)(=O)c1ccc2[nH]c(=O)c(C(c3ccc(Cl)cc3)C3(O)CCNC(Cc4ccccc4)C3)cc2c1 (centres unmarked) [Compound 119] | >16.90 | >16.90 |  |  |
| CS(=O)(=O)c1ccc2[nH]c(=O)c(C(c3ccc(Cl)cc3)C3(O)CCNC(Cc4ccccc4)C3)cc2c1 (centres unmarked) [Compound 120] | 6.76 (≈ 12.6 µM) | 5.37 (≈ 10 µM) |  |  |
| COc1nc2ccc(Br)cc2cc1C(c1ccc(Cl)cc1)C1(O)CCNC(C)C1 (centres unmarked) [Compound 125] | 3.00 (≈ 6.3 µM) | 3.00 (≈ 6.3 µM) |  |  |
| O=c1[nH]c2ccc(Br)cc2cc1C(c1ccc(Cl)cc1)C1(O)CCNC(Cc2ccc(F)c(F)c2)C1 (centres unmarked) [Compound 126] | 3.85 (≈ 6.71 µM) | 3.06 (≈ 5.33 µM) |  |  |
| O=c1[nH]c2ccc(Br)cc2cc1C(c1ccc(Cl)cc1)C1(O)CCNC(Cc2ccc(F)c(F)c2)C1 (centres unmarked) [Compound 127] | 1.93 (≈ 3.36 µM) | 3.06 (≈ 5.33 µM) |  |  |
| O=c1[nH]c2ccc(Br)cc2cc1C(c1ccc(Cl)cc1)C1(O)CCNC(Cc2ccccc2)C1 (centres unmarked) [Compound 128] | 4.56 (≈ 8.48 µM) |  | 3.62 (≈ 6.73 µM) |  |
| CC1CC(O)(C(c2ccc(Cl)cc2)c2cc3cc(Br)ccc3[nH]c2=O)CCN1 (centres unmarked) [Compound 129] |  |  | 7.9 (≈ 17.1 µM) | 12.5 (≈ 27.1 µM) |
| CC1CC(O)(C(c2ccc(Cl)cc2)c2cc3cc(Br)ccc3[nH]c2=O)CCN1 (centres unmarked) [Compound 130] | 11.60 (≈ 25.1 µM) | 5.81 (≈ 12.6 µM) |  |  |
| CC1CC(O)(C(c2ccc(Cl)cc2)c2cc3cc(Br)ccc3[nH]c2=O)CCN1 (centres unmarked) [Compound 131] | >6.27 | 4.98 (≈ 10.8 µM) |  |  |
| O=c1[nH]c2ccc(Br)cc2cc1C(c1ccc(Cl)cc1)C1(O)CCNC(Cc2ccc(F)c(F)c2)C1 (centres unmarked) [Compound 133] | 3.85 (≈ 6.71 µM) | 3.06 (≈ 5.33 µM) |  |  |
| O=c1[nH]c2ccc(Br)cc2cc1C(c1ccc(Cl)cc1)C1(O)CCNC(Cc2ccc(F)c(F)c2)C1 (centres unmarked) [Compound 134] | 3.07 (≈ 5.35 µM) | 3.86 (≈ 6.73 µM) |  |  |
